Measurements reported in US20180320186A1, “METHOD FOR SITE-SPECIFIC INSERTION OF FOREIGN DNA INTO A GENOME IN AN ANIMAL CELL AND A CELL OBTAINED USING SAME” (INTER-UNIVERSITY RESEARCH INSTITUTE CORPORATION RESEARCH …, priority 2015, published 2018).

Experiments:
Assay type in all cases: cell-based, human
[1] = system: RAD21-mAID-Clover fusion protein; assay: Western blotting of RAD21-mAID-Clover after auxin treatment (AID method); conditions: 500 μM auxin for 20 hours, HCT116 with or without OsTIR1
Method: (§1) In this experiment, wild-type HCT116 cells and HCT 116 cells modified to constitutively express OsTIR1 necessary for an auxin-inducible degron (AID) method were used as materials. Proliferating cells were prepared in a 6-well plate. 0.8 μg of pX330 for cleaving the target portion of RAD21 gene and 0.6 μg of each of the constructed donor vectors having neomycin and hygromycin resistance markers were mixed and transfected into the cells using Fugene HD (available from Promega Corporation). For transfection, DNA and Fugene HD were mixed according to the instruction manual, allowed to stand for 15 minutes and then added dropwise to the medium.
A protein was extracted from clones in which insertions into both alleles were confirmed by genomic PCR, and subjected to Western blotting using a RAD21 antibody and a mAID antibody (right in FIG. 6). […] The RAD21 to which mAID-Clover was not added was detected at 105 kDa. On the other hand, the RAD21-mAID-Clover fusion protein was detected at 145 kDa. As shown in the right side of FIG. 6, in the case where a RAD21 antibody was used, a 105 kDa band was detected in the original HCT116 cells (WT), whereas in the case where mAID-Clover was added to both alleles, a 145 kDa band was detected. In addition, in the case where a mAID antibody was used, only the RAD21 protein having mAID-Clover added thereto was detected.

[2] = system: living cells in which a DHC1-mAID-Clover fusion protein is expressed; assay: Percentage of mitotic cells and fluorescence microscopy (tubulin antibody, SiR-Hoechst) of cells expressing DHC1-mAID-Clover; conditions: 500 μM auxin with 1 μg/mL tetracycline
Method: FIG. 12 is a graph showing the percentage of mitotic cells at 18 and 42 hours after treatment, using living cells in which a DHC1-mAID-Clover fusion protein is expressed, untreated and treated with 1 μg/mL of tetracycline alone, or 1 μg/mL of tetracycline and 500 μM of auxin.
The percentage of mitotic cells at 18 and 42 hours after treatment was calculated, using living cells in which a DHC1-mAID-Clover fusion protein is expressed, untreated and treated with 1 μg/mL of tetracycline alone, or 1 μg/mL of tetracycline and 500 μM of auxin (FIG. 12).
In addition, fluorescence microscope observation was carried out after immunostaining with a tubulin antibody and nuclear staining with SiR-Hoechst at 18 hours after treatment for living cells in which a DHC1-mAID-Clover fusion protein is expressed, untreated and treated with 1 μg/mL of tetracycline and 500 μM of auxin (FIG. 13).

[3] = system: living cells in which a DHC1-mAID-Clover fusion protein is expressed; assay: Relative number of cells after treatment of cells expressing DHC1-mAID-Clover; conditions: 500 μM auxin with 2 μg/mL doxycycline; 24, 48 and 72 hours relative to zero hours
Method: FIG. 11 is a graph showing the relative number of cells at 24, 48, and 72 hours after treatment with respect to the number of cells at zero hours after treatment, using living cells in which a DHC1-mAID-Clover fusion protein is expressed, untreated and treated with 2 μg/mL of doxycycline alone, or 2 μg/mL of doxycycline and 500 μM of auxin.
The relative number of cells at 24, 48, and 72 hours after treatment was calculated with respect to the number of cells at zero hours after treatment, using living cells in which a DHC1-mAID-Clover fusion protein is expressed, untreated and treated with 2 μg/mL of doxycycline alone, or 2 μg/mL of doxycycline and 500 μM of auxin (FIG. 11).

[4] = system: DHC1 protein having mAID-Clover added; assay: Western blotting with DHC1 antibody after doxycycline and auxin treatment; conditions: 500 μM auxin with 2 μg/mL doxycycline for 2, 4, 6, 8, 10 and 24 hours
Method: as §1, with “DHC1” for “RAD21”
A protein was extracted from clones in which insertions into both alleles were confirmed by genomic PCR, and subjected to Western blotting using a DHC1 antibody and an OsTIR antibody (right in FIG. 10). In addition, a protein was similarly extracted from the cells treated with 2 μg/mL of doxycycline and 500 μM of auxin (3-indole acetic acid) for 2, 4, 6, 8, 10, and 24 hours, and used for Western blotting.

[5] = system: RAD21-mAID-Clover fusion protein; assay: Deconvolution fluorescence microscopy of living cells expressing RAD21-mAID-Clover after auxin treatment; conditions: 500 μM auxin, observed after 90 minutes, HCT116 with or without OsTIR1
Method: as §1
In the cells before treatment with auxin (3-indole acetic acid), it was observed that RAD21-mAID-Clover was localized in the cell nucleus, regardless of expression of OsTIR1.

SMILES: O=C(O)Cc1c[nH]c2ccccc12 [auxin, 3-indole acetic acid]
- Degradation of RAD21-mAID-Clover (Western blotting) [1]: disappearance of RAD21-mAID-Clover occurred in OsTIR1-expressing cells
- Percentage of mitotic cells ([2]; 18 and 42 hours after treatment): accumulation of mitotic cells
- Chromosomal structure (fluorescence microscopy) ([2]; 18 hours after treatment): a chromosomal structural abnormality occurred
- Relative number of cells (cell proliferation) [3]: cell proliferation was suppressed after 48 hours from the treatment
- DHC1-mAID-Clover protein level (DHC1 antibody) [4]: disappeared with time
- Disappearance of RAD21-mAID-Clover from the nucleus (fluorescence microscope) [5]: RAD21-mAID-Clover disappeared only in cells expressing OsTIR1
